# Measured values reported in PubChem BioAssay (NCI).
#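 Results reflect a 48-hour exposure of cells in 96-well plates to compound at five concentrations. At the GI50, growth is halved. TGI marks complete inhibition of growth.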
# What was measured:
# Test in all cases: NCI-60 cell line screen, 48 h
# [1] = test system: COLO 205 colon
# [2] = test system: HCC-2998 colon
# [3] = test system: LOX IMVI melanoma
# [4] = test system: SNB-19 CNS
# [5] = test system: MALME-3M melanoma
# [6] = test system: HS 578T breast
# [7] = test system: NCI-H23 lung
# [8] = test system: CCRF-CEM leukemia
# [9] = test system: NCI-H460 lung
# [10] = test system: MDA-MB-231 breast
# [11] = test system: OVCAR-8 ovarian
# [12] = test system: TK-10 renal
# [13] = test system: SNB-75 CNS
# [14] = test system: 786-0 renal
# [15] = test system: MDA-MB-435
# [16] = test system: MOLT-4 leukemia
# [17] = test system: MCF7 breast
# [18] = test system: HOP-62 NSCLC
# [19] = test system: SW-620 colon
# [20] = test system: UO-31 renal
# [21] = test system: UACC-257 melanoma
# [22] = test system: BT-549 breast
# [23] = test system: M14 melanoma
# [24] = test system: OVCAR-5 ovarian
# [25] = test system: SK-MEL-2 melanoma
# [26] = test system: OVCAR-3 ovarian
# [27] = test system: SF-539 CNS
# [28] = test system: T-47D breast
# [29] = test system: HCT-116 colon
smiles,measurement,setting,value
Cn1ncc(NC(=O)c2nc(-c3c(F)cccc3F)sc2N)c1N1CC[C@@H](N)[C@H](F)CC1,TGI,[1],16.7 µM
same,GI50,[2],14.2 µM
same,TGI,[2],35.2 µM
same,GI50,[3],5.71 µM
same,TGI,[3],21 µM
same,GI50,[4],26.3 µM
same,TGI,[4],86.5 µM
same,GI50,[5],5.18 µM
same,TGI,[5],21 µM
same,GI50,[6],2.99 µM
same,TGI,[6],14.8 µM
same,GI50,[7],11.4 µM
same,TGI,[7],34.4 µM
same,GI50,[8],4.55 µM
same,TGI,[8],> 100 µM
same,GI50,[9],5.02 µM
same,TGI,[9],21.2 µM
same,GI50,[10],6.93 µM
same,TGI,[10],31 µM
same,GI50,[11],8.65 µM
same,TGI,[11],37.1 µM
same,GI50,[12],2.81 µM
same,TGI,[12],41.7 µM
same,GI50,[13],1.06 µM
same,TGI,[13],8.83 µM
same,GI50,[14],3.75 µM
same,TGI,[14],20.8 µM
same,GI50,[15],3.61 µM
same,TGI,[15],19.4 µM
same,GI50,[16],3.54 µM
same,TGI,[16],30.5 µM
same,GI50,[17],2.8 µM
same,TGI,[17],13.9 µM
same,GI50,[18],3.56 µM
same,TGI,[18],22.8 µM
same,GI50,[19],3.65 µM
same,TGI,[19],24.8 µM
same,GI50,[20],1.24 µM
same,TGI,[20],5.67 µM
same,GI50,[21],14.4 µM
same,TGI,[21],30.6 µM
same,GI50,[22],2.39 µM
same,TGI,[22],16.5 µM
same,GI50,[23],3.03 µM
same,TGI,[23],18.5 µM
same,GI50,[24],16.5 µM
same,TGI,[24],54.6 µM
same,GI50,[25],3.45 µM
same,TGI,[25],13.5 µM
same,GI50,[26],11.1 µM
same,TGI,[26],31.3 µM
same,GI50,[27],3.85 µM
same,TGI,[27],15.3 µM
same,GI50,[28],3.34 µM
same,TGI,[28],34.2 µM
same,GI50,[29],4.33 µM
same,TGI,[29],60.3 µM
